Source: ChEMBL document CHEMBL1811754, “Sesquiterpene and xanthone derivatives from the sea fan-derived fungus Aspergillus sydowii PSU-F154” (J Nat Prod, 2011)
Active and inactive are the calls of the source. No cut-off for these calls is given here.

system: Radical scavenging activity; experiment: Antioxidant activity assessed as DPPH radical scavenging activity after 30 mins by spectrophotometry; format: functional

Row | IC50 | Compound | Activity
1 | – | CO[C@@](C)(CCCC(C)C)c1ccc(C(=O)O)cc1O | inactive
2 | – | Cc1c(CCC(C)C)oc2cc(C(=O)O)ccc12 | inactive
3 | – | COC(=O)c1cccc2oc3cc(C)cc(O)c3c(=O)c12 | inactive
4 | – | COC(=O)[C@@]1(O)c2c(oc3cc(C)cc(O)c3c2=O)CC[C@H]1O | inactive
5 | – | O=C1N[C@@H](Cc2c[nH]c3ccccc23)C(=O)N[C@H]1Cc1ccccc1 | inactive
6 | 17 µM | COC(=O)[C@@H]1c2c(oc3cc(CO)cc(O)c3c2=O)C=C[C@H]1O | –
7 | – | COC(=O)c1c(O)ccc2oc3cc(CO)cc(O)c3c(=O)c12 | inactive
8 | – | COC(=O)c1cccc2oc3cc(CO)cc(O)c3c(=O)c12 | inactive
9 | – | C/C(=C\CCC(C)C)c1ccc(CO)cc1O | inactive
